# Data as given in patent US20230295088A1, “INSULIN SENSITIZERS FOR THE TREATMENT OF DIABETES MELLITUS” (University of Iowa Research Foundation, priority 2020, published 2023).
# Entries after “also recorded” stand apart in the source; their conditions may differ.
# What was measured:
# [1] = tested on: GLUT4 translocation in C2C12 myoblast cell line stably expressing HiBiT-GLUT4 (HBG4); assay: HiBiT (NanoBit) luminescence GLUT4 translocation assay in HBG4 C2C12 cells; type: cell-based, mouse
# Text: An assay was used to identify potentiators of insulin-stimulated GLUT4 translocation. In one embodiment, the assay employs Nanobit technology. This technology is based on the recombination of two complementary fragments, HiBiT and LgBiT, of the Nanoluc luciferase. HiBit was fused to an extracellular region of GLUT4 to allow for the rapid quantitation of its the surface density in live cells by adding the reconibinantly produced complementary fragment LgBiT and the luciferase substrate. Since LgBiT is not membrane permeant, only proteins at the plasma membrane are quantified. To measure GLUT4 translocation, a stable C2C12 myoblast cell line was prepared by expressing a HiBiT-tagged mouse GLUT4. […] The Chembridge Diverset library of 49,600 compounds was screened and 1264 hits were identified. A subset of those hits were selected and retested in the presence and absence of insulin.
# Development of a HTS assay for real-time measurement of GLUT4 translocation. To measure GLUT4 translocation in a homogenous and HIS amenable manner, NanoBit technology was used. This technology relies on the rapid recombination of 2 fragments of the Nanoluc luciferase (HiBit and LgBiT) with high affinity for each other. Fragments have no enzymatic activity on their own but generate a bright luminescent signal when recombined. A C2C12 myoblast cell line was prepared that stably expressed HiBiT-GLUT4 (HBG4), in which the small 11 amino acid HiBiT fragment was inserted into the first extracellular loop of GLUT4. A C-terminal mCherry was also added for microscopic detection. The C2C12 line was chosen as an in vitro model because it is derived from skeletal myoblasts and translocate GLUT4 in response to insulin. Detection of plasma membrane density of HBG4 is achieved by adding recombinant LgBit and substrate to live cells. The assay can be conducted as an endpoint where cells are incubated with insulin before measuring luminescence or as a kinetic assay by adding LgBiT and substrate at the beginning of the experiment and monitor real-time insulin-stimulated GLUT4 translocation.
# An assay to measure GLUT4 translocation in a homogenous and HIS amenable manner using NanoBit technology was developed. This technology relies on the rapid recombination of 2 fragments of the Nanoiuc luciferase (HiBit and LgBiT) with high affinity for each other. Fragments have no enzymatic activity on their own but generate a bright luminescent signal when recombined. A C2C12 myoblast cell line stably expressing HiBiT-GLUT4 (HBG4), in which the small 11 amino acid HiBiT fragment was inserted into the first extracellular loop of GLUT4 was prepared. A C-terminal mCherry was also added for microscopic detection (FIGS. 1A and B). The C2C12 line was chosen as an in-vitro model because it is derived from skeletal myoblasts and translocates GLUT4 in response to insulin. Detection of plasma membrane density of HBG4 is achieved by adding recombinant LgBit and substrate to live cells (FIG. 1C). The assay can be conducted as a kinetic assay by adding LgBiT and substrate at the beginning of the experiment and monitoring real-time insulin-stimulated GLUT4 translocation (FIGS. 1D and E).
# [2] = tested on: diet-induced obese (DIO) mice; assay: Glucose tolerance, fasting glucose and insulin in diet-induced obese (DIO) insulin-resistant mice; type: in vivo, mouse; conditions: DIO mice, C59 treatment
# Experimental: To test whether C3 improves glucose handling, WT mice were made insulin-resistant by feeding them a high fat diet (HFD) for a period of 10 weeks. After 10 weeks, mice were injected with vehicle. C3 (20 mg/kg), or the TZD rosiglitazone (20 mg/kg) for 2 weeks while remaining on the HFD. […] To further test the in vivo efficacy of C3, a glucose tolerance test (GTT) was perfromed.
# To test whether C3 improves glucose handling, lean mice were injected with vehicle or C3 30 minutes before performing a glucose tolerance test. […] To further determine if C3 can reverse glucose intolerance, WT mice were made insulin-resistant by feeding them a high fat diet (HFD) for a period of 10 weeks. Diet induced obese (DIO) mice were then injected with vehicle or C3 for 2 weeks while remaining on HFD.
# Unc119b [3] = molecular target: T1, Unc119b (Mus musculus, UniProt Q8C4B4); assay: Proteome Integral Solubility Alteration (PISA) assay, Unc119b; type: binding; parameters: dose or concentration left out as unconfirmed
# T1 construct: endogenous in cells
# T1 sequence (Q8C4B4 whole entry): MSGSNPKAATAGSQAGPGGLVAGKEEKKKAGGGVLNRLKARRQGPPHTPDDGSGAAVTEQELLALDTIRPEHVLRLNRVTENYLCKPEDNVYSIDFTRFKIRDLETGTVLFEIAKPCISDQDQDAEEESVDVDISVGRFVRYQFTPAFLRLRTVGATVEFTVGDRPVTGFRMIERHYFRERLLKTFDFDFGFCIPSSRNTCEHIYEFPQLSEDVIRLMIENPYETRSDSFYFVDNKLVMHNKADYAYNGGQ
# Text: (§1) Identification of the molecular target of C59. Since the discovery of C59 as an insulin sensitizer was achieved using a phenotypic screen, the molecular target of the compound was unknown. To identify the target, a Proteome Integral Solubility Alteration (PISA) assay was used. […] To measure the shift in thermal stability, constructs coding for Unc119-HiBiT and Unc119b-HiBit were generated, thus allowing the quantitative detection of those proteins by adding LgBiT and furimazin to the lysates and measuring luminescence. Crude extract from cells transfected with Unc119-HiBiT or Unc119b-HiBiT, were incubated with DMSO or C59 for 10 minutes, aliquoted, heated for 3 minutes at the indicated temperature and allowed to cool down to room temperature before adding LgBiT and furimazin and reading luminescence on a plate reader.
# Unc119 = molecular target: T2, Unc119 (Homo sapiens, UniProt Q13432); assay: Luminescence complementation based thermal shift assay, Unc119-HiBiT; type: binding; conditions: crude extract of Unc119-HiBiT transfected cells, 10 minutes incubation, heated 3 minutes
# T2 construct: expressed in transfected cells
# Text: as §1
# Unc119b [4] = molecular target: T3, Unc119b (Homo sapiens, UniProt A6NIH7); assay: Luminescence complementation based thermal shift assay, Unc119b-HiBiT; type: binding; conditions: crude extract of Unc119b-HiBiT transfected cells, 10 minutes incubation, heated 3 minutes
# T3 construct: expressed in transfected cells
# T3 sequence (A6NIH7 whole entry, species assumed): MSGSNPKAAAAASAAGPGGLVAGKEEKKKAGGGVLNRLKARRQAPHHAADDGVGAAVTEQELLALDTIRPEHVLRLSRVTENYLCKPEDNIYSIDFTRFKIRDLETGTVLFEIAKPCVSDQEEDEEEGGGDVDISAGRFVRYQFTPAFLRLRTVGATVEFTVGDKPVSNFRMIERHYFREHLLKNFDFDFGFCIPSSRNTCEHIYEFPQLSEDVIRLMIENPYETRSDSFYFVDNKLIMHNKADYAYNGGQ
# Text: as §1
# Unc119b KO HBG4 cells [5] = assay: Insulin-stimulated GLUT4 translocation in Unc119b KO HBG4 cells; type: cell-based, mouse
# Experimental: (§2) Unc119 and Unc119b are important for the insulin sensitizing effect of C59. After identifying Unc119 proteins as molecular targets for C59, it was tested whether those proteins were responsible for the insulin sensitizing activity of C59. To this end Unc119 and Unc119b KO HBG4 cells were generated using CRISPR/Cas9 technology. For each of those cell lines two gRNA surrounding the start codon were used, thus resulting in a deletion of a fragment of the Unc119 genes that includes the ATG. Deletion of Unc119 and Unc119b in clonal cell lines were screened and verified by PCR (FIG. 4E). The effect of C59 on insulin-stimulated. […] To further test this finding, 3H-Deoxy-D-Glucose uptake in WT, Unc119 KO and Unc119b KO HBG4 cells treated with vehicle, insulin, C59 alone and C59 with insulin was measured.
# WT HBG4 cells = assay: 3H-Deoxy-D-Glucose uptake in WT HBG4 cells; type: cell-based, mouse
# Experimental: as §2
# Unc119b KO HBG4 cells [6] = assay: 3H-Deoxy-D-Glucose uptake in Unc119b KO HBG4 cells; type: cell-based, mouse
# Experimental: as §2
# [7] = Solubility in aqueous solution; type: physicochemical; conditions: compared with C3
smiles,measurement,setting,value
O=C(Nc1ccc(Cl)c(Cl)c1)C12CC3CC(CC(C3)C1)C2 [Compound C59],EC50,"[1]; Mus musculus, HBG4 C2C12 cells, with insulin, read-out: potency (enhancement of insulin effect on GLUT4 translocation)",2500 nM
same,efficacy compared with C3,[1]; enhancement of insulin effect on GLUT4 translocation,higher; also recorded: improved efficacy
same,insulin-stimulated GLUT4 translocation,"[1]; in the presence of insulin, WT HBG4 C2C12 cells",enhanced; also recorded: retained activity; also recorded: increased
same,glucose handling in DIO mice,[2],drastically improves
same,thermostability of Unc119b (PISA),"Unc119b [3]; live cells, vs DMSO and C29",increased the thermostability; also recorded: concentration dependent increased thermostability
same,thermostability of Unc119b (PISA),Unc119b [3]; lysates (crude extract),increased the thermostability
same,thermostability shift for Unc119,Unc119,6.6 C.
same,thermostability shift for Unc119b,Unc119b [4],6.7 C.
same,insulin-stimulated GLUT4 translocation,Unc119b KO HBG4 cells [5],failed to enhance
same,"3H-Deoxy-D-Glucose uptake, compound alone",WT HBG4 cells; no insulin,did not stimulate
same,insulin stimulated 3H-Deoxy-D-Glucose uptake,WT HBG4 cells; with insulin,significantly increased
same,"3H-Deoxy-D-Glucose uptake, compound alone",Unc119b KO HBG4 cells [6]; no insulin,did not stimulate
same,insulin stimulated 3H-Deoxy-D-Glucose uptake,Unc119b KO HBG4 cells [6]; with insulin,failed to do so
same,solubility in aqueous solution,[7],improved solubility
